Data: patent US20150297593A1 (priority 2012, published 2015)

Key:
RSV = assay: RSV-induced AHR model; format: in vivo, BALB/c mice; details: 100 mg/kg i.p. on day 1 post infection
[1] = system: nuocytes (CD45+Lin−ST2+cKit+Sca1+); format: in vivo, BALB/c mice
[2] = system: influenza A virus (Mem71, H3N1); format: in vivo, Rag2−/− mice
[3] = system: nuocytes (CD45+Lin−ST2+ckit+Sca1+); assay: FACS count of BAL and lung nuocytes after rIL-33 in Rag2−/− mice; details: imatinib 100 mg/kg i.p. on day 1, day 5
Protocol: In FIGS. 5C and 5D, BAL cells (FIG. 5C) or lung cells (FIG. 5D) were taken from 8 wk old Rag2^−/− mice (n=5 per group) on day 5, and further stimulated with PMA+ionomycin for 5 hr. The percentage of lung CD45^+Lin^−ST2^+ckit^+Sca1^+ cells was assessed by FACS. Third panels show dot plots for Lin^−ST2^+ cells in lung leukocytes (CD45^+). After gating on the Lin^−ST2^+cKit^+ cells, the cells were analyzed for c-Kit and Sca1 expression (fourth panels).
Whole lungs were flushed with PBS injected into the right ventricle, removed, and rinsed in PBS. […] The digest was passed multiple times through an 18-gauge needle and allowed to incubate for another 30 min before filtered. RBCs were removed by 4-min incubation in lysis buffer (Sigma-Aldrich, St. Louis, Mo.) at room temperature. Single-cell suspensions of spleen lymphocytes were obtained by mechanical disruption and RBC lysis.
Cells were preincubated with anti-Fcy blocking mAb (2.4G2) and washed before staining. Cells were stained with anti-mouse PE-Texas red-conjugated CD45, FITC-conjugated CD3, CD19, CD11b, CD11c, CD49b, F4/80, Fc□R1; APC conjugated cKit,; PerCP conjugated cKit, Alexa Fluor 700-conjugated Sca1; PE conjugated biotinylated anti-ST2 antibodies. […] Cells were analyzed on a BDCanto flow cytometer (BD Biosciences, Franklin Lakes, N.J.) using FlowJo 8.3.3 software (Tree Star, Inc., Ashland, Oreg.).

[4] = system: influenza A virus (Mem71, H3N1); design: species or system BALB/c mice; details: mouse, in vivo
[5] = system: influenza A virus (Mem71, H3N1); details: 100 mg/kg i.p. on day 1; sera on day 11
[6] = system: mouse lung nuocytes (Lin−ST2+); format: cell-based; details: IL-2 50 ng/ml plus rIL-33 100 ng/ml, imatinib 0.1-1 μM
[7] = system: recombinant IL-33 (rIL-33)-induced AHR; details: mouse, in vivo
[8] = system: human nuocytes isolated from the BAL fluid of patients with asthma; format: cell-based; details: imatinib 1 μM; rIL-2 50 ng/ml plus rIL-33 100 ng/ml for 24 hrs
[9] = 100 mg/kg on day 1, day 5 post-infection
[10] = after imatinib treatment, data not shown

With Cc1ccc(NC(=O)c2ccc(CN3CCN(C)CC3)cc2)cc1Nc1nccc(-c2cccnc2)n1 [imatinib] the “development of RSV-induced inflammation” value (RSV) was “blocked”, the “development of RSV-induced AHR” value (RSV; assessed 6 days post-infection) was “blocked” and the “total number of NKT cells in the lung” value ([1]; 100 mg/kg on day 1, day 5) was “had no effect”. For the same compound, the “total number of conventional T cells in the lung” value ([1]; 100 mg/kg on day 1, day 5) was “had no effect”, the “frequency and absolute number of nuocytes in BAL fluid” value [1, 9] was “reduced” and the “frequency and absolute number of nuocytes in the lungs” value [1, 9] was “reduced”. For the same compound, the “frequency of NKT cells in BAL fluid” value [1, 10] was “slightly reduced”, the “total number of BAL fluid cells” value [1, 10] was “slightly reduced” and the “H3N1 infection-induced inflammation in Rag2−/− mice” value ([2]; 100 mg/kg i.p. on day 1, […]) was “inhibits”. The “influenza-induced AHR in Rag2−/− mice” value ([2]; mouse, in vivo) was “blocked”, the “number of BAL and lung nuocytes (airway nuocytophilia induced with rIL-33)” value [3] was “reduced” and the “inflammation (BAL fluid cells)” value [4] was “abolished”. For the same compound, the “lung inflammation (BAL fluid cells)” value [4] was “abolished”, the “anti-influenza IgG production” value [5] was “no significant reduction” and the “secretion of IL-5 by nuocytes (ELISA)” value [6] was “reduced”. For the same compound, the “secretion of IL-13 by nuocytes (ELISA)” value [6] was “reduced”, the “proliferation of mouse lung nuocytes (3H-thymidine incorporation)” value ([6]; dose-dependent) was “blocked” and the “AHR induced with recombinant IL-33” value [7] was “could block”. For the same compound, the “production of IL-13 by human nuocytes” value [8] was “blocked”.
In the case of Cc1ccc(NC(=O)c2ccc(CN3CCN(C)CC3)cc2)cc1Nc1nc(-c2cccnc2)cs1 [masitinib], the “H3N1-induced AHR” value [4] is reported as “abolished” and the H3N1-induced inflammation [4] is reported as “abolished”.
